In patent US20030181401A1, “Insulin secretion promoter” (KYOWA HAKKO KOGYO CO., LTD., priority 2002, published 2003):

Experiments:
Type in all cases: in vivo
ICR mice [1] = assay: Test Example 6: serum glucose after intravenous saccharide with simultaneous oral glucose loading
Procedure: Groups of male 9-week-old ICR mice (Japan SLC, Inc.) each consisting of 7 mice were fed CE-2 (Clea Japan, Inc.) for one week, so as to accustom the animals to the environment. Then, the mice were fasted for 18 hours.
An aqueous 10% solution of 2′-FL or NeuAc was intravenously administered to the mice to 500 mg (saccharide)/kg body weight, while an aqueous 40% glucose solution was orally administered simultaneously to 2 g (glucose)/kg body weight, to the mice. To the control group, physiological saline was administered intravenously, while glucose was orally administered simultaneously to 2 g/kg body weight. Zero minute and 30 minutes after glucose loading, blood was taken from a tail vein. […] Blood was centrifuged (4° C., 10000 rpm, 10 minutes), to obtain serum.
Furthermore, the glucose concentration in the serum recovered was also assayed. The glucose concentration was assayed, using Glucose CII-TEST WAKO (WAKO Pure Chemical Industries, Ltd.). 2 μl of the recovered serum was placed in a 96-well plate, followed by addition of 200 μl of the chromogenic solution attached to the kit, for incubation at 37° C. for 10 minutes. After incubation, the absorbance at 490 nm was assayed with a plate reader. Herein, a standard curve was prepared by using aqueous 500 mg/dl glucose solution as the standard solution to dilute the standard solution appropriately for the same reaction as for the serum, and plotting the relation between the concentration and the absorbance (490 nm). Based on the prepared standard curve and the absorbance from the reaction with the serum, the glucose concentration in the serum was determined.

ICR mice [2] = assay: Test Example 8: blood glucose in glucose tolerance test after single oral 2′-FL dose
Procedure: (§1) Groups of male 8-week-old ICR mice (Japan SLC, Inc.) each consisting of 6 mice were fed CE-2 (Clea Japan, Inc.) for one week, so as to accustom the animals to the environment.
(§2) Then, the mice accustomed were fasted for 18 hours. An aqueous 2% solution of 2′-FL was orally administered to the mice to 100 mg (2′-FL)/kg body weight, while 0.9% saline was administered orally to the control group. Two hours after the 2′-FL dosing, an aqueous 40% glucose solution was orally administered to 2 g (glucose)/kg body weight to the mice, for glucose tolerance test. […] Blood glucose was assayed with a simple-type blood glucose assay apparatus Medisafe Reader GR-101 (Terumo, Co., Ltd.), while the serum was collected.

db/db mice = assay: Test Example 4: serum insulin in glucose tolerance test after 7-day oral dosing of saccharides
Procedure: Groups of male 9-week-old db/db mice (Clea Japan, Inc.) each consisting of 6 mice were fed CE-2 (Clea Japan, Inc.) for one week, so as to accustom the animals to the environment.
After acclimation, individual aqueous 10% solutions of 3′-sialyllactose (abbreviated as “3′-SL” hereinafter), 6′-sialylactose (abbreviated as “6′-SL”) and 2′-FL were orally administered to the mice at 200 mg (saccharide)/kg body weight in the morning and at 300 mg (saccharide)/kg body weight in the evening. The both volume of saline was administered to the control group. The individual aqueous saccharide solutions and saline were both dosed daily to the mice for 7 days. During the dosing period, CE-2 was given together with drinking water ad libitum.
After 18-hour starvation from the final dosing on day 7, an aqueous 40% glucose solution was orally administered to 2 g (glucose)/kg body weight to the mice, to perform glucose tolerance test. Zero minute and 30 minutes after glucose loading, blood was taken from a tail vein. […] Blood was centrifuged (4° C., 10000 rpm, 10 minutes), to obtain serum.
Insulin in the serum recovered was assayed by enzyme immunoassay using Lebis Insulin kit (for rats-T) (Shibayagi, Co., Ltd.) in the same manner as in the Test Example 1.

ICR mice [3] = assay: Test Example 8: serum insulin in glucose tolerance test after single oral 2′-FL dose
Procedure: as §1, §2
Insulin in the serum recovered was assayed by enzyme immunoassay using Morinaga ultra-sensitive rat insulin assay kit (Morinaga Biochemical Research Institute, Co., Ltd.) described below. 15 μl of the serum was divided in the wells of an antibody-immobilized plate, where 85 μl of the diluent attached to the kit was divided therein, for reaction at 4° C. for 2 hours. […] The absorbance of each well at 450 nm (principal wave length) and 655 nm (sub wave length) was measured with BioRad Model 3550 microplate reader (BioRad Laboratories, Inc.). […] Based on the prepared standard curve, the serum insulin concentration corresponding to the absorbance during the reaction with the serum was determined.

[4] = ICR mice fasted 18 hours, 100 mg/kg single oral dose two hours before glucose 2 g/kg oral, 60 minutes, mean ± SD
[5] = ICR mice, single oral dosing 120 minutes before glucose dosing

2′-fucosyllactose [2′-FL]
Serum glucose concentration after glucose loading, 30 minutes (ICR mice [1]; ICR mice fasted 18 hours, 500 mg/kg intravenous with simultaneous glucose 2 g/kg oral, 30 minutes, mean ± SD): 331.4 ± 68.6 mg/dL | Serum glucose concentration after glucose loading, 120 minutes (ICR mice [1]; ICR mice fasted 18 hours, 500 mg/kg intravenous with simultaneous glucose 2 g/kg oral, 120 minutes, mean ± SD): 169.2 ± 29.5 mg/dL | Serum glucose concentration after glucose loading, Zero minute (ICR mice [1]; ICR mice fasted 18 hours, 500 mg/kg intravenous with simultaneous glucose 2 g/kg oral, zero minute, mean ± SD): 102.4 ± 23.3 mg/dL | increase of the serum glucose concentration compared with the control group (in words) (ICR mice [1]; ICR mice, intravenous dosing): suppressed | Blood glucose level after glucose loading, 0 minute (ICR mice [2]; ICR mice fasted 18 hours, 100 mg/kg single oral dose two hours before glucose 2 g/kg oral, 0 minute, mean ± SD): 109 ± 4.4 mg/dL | Blood glucose level after glucose loading, 60 minutes (ICR mice [2]; [4]): 219 ± 29 mg/dL | Blood glucose level after glucose loading, 120 minutes (ICR mice [2]; ICR mice fasted 18 hours, 100 mg/kg single oral dose two hours before glucose 2 g/kg oral, 120 minutes, mean ± SD): 147 ± 14.2 mg/dL | Blood glucose level after glucose loading, −120 minutes (ICR mice [2]; ICR mice fasted 18 hours, 100 mg/kg single oral dose two hours before glucose 2 g/kg oral, −120 minutes, mean ± SD): 131 ± 23.6 mg/dL | elevation of blood glucose level (in words) (ICR mice [2]; [5]): suppressed | serum insulin concentration during glucose loading compared with the control group (in words) (db/db mice; continuous daily oral dosing): increased | Serum insulin concentration after glucose loading, 30 minutes (db/db mice; oral 200 + 300 mg/kg daily, 7 days, glucose 2 g/kg oral, 30 minutes, mean ± SD): 8.3 ± 3.9 ng/mL | Serum insulin concentration after glucose loading, 120 minutes (db/db mice; oral 200 + 300 mg/kg daily, 7 days, glucose 2 g/kg oral, 120 minutes, mean ± SD): 26.1 ± 12.9 ng/mL | Serum insulin concentration after glucose loading, Zero minute (db/db mice; oral 200 + 300 mg/kg daily, 7 days, glucose 2 g/kg oral, zero minute, mean ± SD): 6.7 ± 3.3 ng/mL | Serum insulin concentration after glucose loading (ICR mice [3]; [4]): 82.6 ± 91.7 pg/mL | serum insulin concentration after glucose loading compared with the control group (in words) (ICR mice [3]; [5]): increased
